Source: patent US8227512B2, “Pharmaceutical composition containing daurinol for the prevention and treatment of cancers” (Korea Institute of Science and Technology, priority 2007, dated 2012)
Several values for one entry are separate records, joined by “and”; a condition that tells them apart may be missing. Equal entries are not always repeated. Where two headings read alike, the source gives them in different places.

What was measured:
DLD-1 [1] = experiment: MTT cancer cell growth inhibition by daurinol; type: cell-based; conditions: Homo sapiens, read-out: IC50 (concentration for 50% of cell growth inhibition)
Procedure: (§1) Daurinol obtained by the method of Example 2 was treated to human colon cancer cell lines HCT116 (American type of cell culture, ATCC) and DLD-1 (American type of cell culture, ATCC) to investigate the cancer cell growth inhibitory effect. The cell lines were cultured in MEM supplemented with 10% fetal bovine serum and antibiotics (penicillin and streptomycin) in a 37° C., 5% CO2 incubator. Sub-culture was performed every 2-3 days.
(§2) HCT116 and DLD-1 were inoculated in a 96-well plate at the concentration of 5×10^3 cells/well, followed by culture for 24 hours. Daurinol dissolved in DMSO (Dimethyl Sulfoxide) was treated thereto at different concentrations of 0.1-200 μg/ml for 24 and 48 hours. MTT reagent (methylthiazol-2-yl-2.5 diphenyl tetrazolium bromide) was treated thereto. 1-3 hours later, OD450 was measured to investigate cell growth.

HCT116 [2] = experiment: MTT cancer cell growth inhibition by daurinol; type: cell-based; conditions: Homo sapiens, HCT-116, read-out: IC50 (concentration for 50% of cell growth inhibition)
Procedure: as §1, §2

DLD-1 [3] = experiment: Cell cycle analysis, propidium iodide staining, flow cytometry; type: cell-based, human; conditions: for Cell cycle ratio, sub G0/G1 ratio (index for apoptosis): 48 hours (control 0); for Cell cycle ratio, S phase ratio: 48 hours (control 29.6)
Procedure: (§3) Human colon cancer cell lines HCT116 and DLD-1 were inoculated in 60×15 cm culture dishes at the concentration of 5×10^5 cells per dish, followed by culture for 24 hours. Daurinol dissolved in DMSO (Dimethyl Sulfoxide) was treated thereto at the concentrations of 5-20 μM for 24, 48 and 72 hours, respectively. The cells were harvested and washed with DPBS (Dulbecco's Phosphate Buffered Saline), followed by fixation in 70% ethanol at −20° C. for more than one day. The cells were washed again with DPBS and stained with propidium iodide for 20 minutes, and then were analyzed by flow cytometry. The propidium iodide selectively stains intracellular DNA. So, the fluorescence by propidium iodide and cell numbers was used as variants to make a graph, showing the pattern of cell cycle. According to this graph, cell cycle blocking activity of daurinol and apoptosis induced by daurinol could be confirmed.

HCT116 [4] = experiment: as above; type: cell-based, human; conditions: for Cell cycle ratio, sub G0/G1 ratio (index for apoptosis): 48 hours (control 0.1); for Cell cycle ratio, S phase ratio: 48 hours (control 33.7)
Procedure: as §3

HCT116 cells [5] = experiment: Apoptosis by annexin V-FITC / propidium iodide co-staining, flow cytometry; type: cell-based, human; conditions: HCT116, 5 μM daurinol, 24 and 48 hours (FIGS. 7 and 8)
Text: The induction of apoptosis by daurinol obtained by the method of Example 2 was thoroughly examined by co-staining with annexin V—FITC (fluorescein isothiocyanate) and propidium iodide.
In normal cells, phosphatidylserine, one of the cell membrane forming phospholipids, is always heading toward inside of the cell. When early apoptosis is induced, this phosphatidylserine is exposed outside of the cell. Thus, the apoptotic cells can be detected by using green fluorescence labeled annexin V that is selectively bound to phosphatidylserine.
HCT116 cells were inoculated in 60×15 cm culture dishes at the concentration of 5×10^5 cells per dish, followed by culture for 24 hours. Daurinol dissolved in DMSO (Dimethyl Sulfoxide) was treated thereto at the concentrations of 5 μM for 24 and 48 hours. The cells were harvested and washed with DPBS (Dulbecco's Phosphate Buffered Saline). 1×10^6 cells were stained with annexin V-FITC (fluorescein isothiocyanate) and propidium iodide for 15 minutes, and then were analyzed by flow cytometry.

HCT116 cells [6] = experiment: Morphological changes under DIC light microscope; type: cell-based, human; conditions: HCT116, 5 μM daurinol
Procedure: Daurinol obtained by the method of Example 2 was treated to cancer cells and then morphological changes of the cancer cells were observed under DIC (differential interference contrast) light microscope.
HCT116 cells were inoculated in 60×15 cm culture dishes at the concentration of 5×10^5 cells per dish, followed by culture for 24 hours. 5 μM of daurinol dissolved in DMSO (Dimethyl Sulfoxide) was treated thereto, followed by culture for 12, 24, 48, 72 and 96 hours respectively. Morphological changes of the cells were observed under DIC light microscope.

SMILES: COc1cc2c(-c3ccc4c(c3)OCO4)c3c(cc2cc1O)COC3=O [daurinol]
- IC50 (DLD-1 [1]; DLD-1, 24 hours treatment): 10.5 µg/mL and 30 µM
- IC50 (DLD-1 [1]; DLD-1, 48 hours treatment): 1.4 µg/mL and 4.08 µM
- IC50 (HCT116 [2]; HCT116, 24 hours treatment): 4.4 µg/mL and 12.4 µM
- IC50 (HCT116 [2]; HCT116, 48 hours treatment): 0.7 µg/mL and 2.07 µM
- Cell cycle ratio, sub G0/G1 ratio (index for apoptosis) (DLD-1 [3]; DLD-1, 5 μM daurinol): 0.3%
- Cell cycle ratio, S phase ratio (DLD-1 [3]; DLD-1, 5 μM daurinol): 68.6%
- Cell cycle ratio, sub G0/G1 ratio (index for apoptosis) (DLD-1 [3]; DLD-1, 10 μM daurinol): 0.6%
- Cell cycle ratio, S phase ratio (DLD-1 [3]; DLD-1, 10 μM daurinol): 64.1%
- Cell cycle ratio, sub G0/G1 ratio (index for apoptosis) (DLD-1 [3]; DLD-1, 20 μM daurinol): 1.4%
- Cell cycle ratio, S phase ratio (DLD-1 [3]; DLD-1, 20 μM daurinol): 68.0%
- S phase of cell cycle versus untreated control (HCT116 [4]; HCT116, 5 μM daurinol, 24, 48 and 72 hours (FIG. 5)): significantly increased
- Cell cycle ratio, sub G0/G1 ratio (index for apoptosis) (HCT116 [4]; HCT116, 5 μM daurinol): 3.8%
- Cell cycle ratio, S phase ratio (HCT116 [4]; HCT116, 5 μM daurinol): 52.8%
- sub G0/G1 ratio, the index for apoptosis (HCT116 [4]; HCT116, 5 μM daurinol, different treatment times (FIG. 6)): significantly increased
- Cell cycle ratio, sub G0/G1 ratio (index for apoptosis) (HCT116 [4]; HCT116, 10 μM daurinol): 4.6%
- Cell cycle ratio, S phase ratio (HCT116 [4]; HCT116, 10 μM daurinol): 61.1%
- Cell cycle ratio, sub G0/G1 ratio (index for apoptosis) (HCT116 [4]; HCT116, 20 μM daurinol): 9.4%
- Cell cycle ratio, S phase ratio (HCT116 [4]; HCT116, 20 μM daurinol): 60.8%
- Apoptosis (annexin V-FITC positive cells) versus control (HCT116 cells [5]): significantly induced
- Morphological changes of the cells (HCT116 cells [6]; after 24 hours (FIG. 9)): the boundary of the cells became obvious
- Morphological changes of the cells (HCT116 cells [6]; after 48 hours (FIG. 9)): started to detach from the bottom of culture dish
